Read-outs that look alike come from different tables or passages of the source.
Columns and labels:
Assay type in all cases: in vivo
[1] = test system: Kochia (Kochia scoparia); test: Test A preemergence; conditions: Bassia scoparia, pre-emergence, 240 h, read-out: Plant response rating, Kochia; for pest or weed control at 500 g/ha: 500 g ai/ha; for pest or weed control at 125 g/ha: 125 g ai/ha
Method in brief: (§1)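 Preemergence directed soil spray on seeded pots, or postemergence application to plants 2–10 cm, one- to two-leaf. Solvent mixture non-phytotoxic, with surfactant. Scored ~10 d later, visually, 0–100 vs untreated.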

[2] = test system: barnyardgrass (Echinochloa crus-galli); test: Test A preemergence; conditions: Echinochloa crus-galli, pre-emergence, 240 h, read-out: Plant response rating, Barnyardgrass; for pest or weed control at 500 g/ha: 500 g ai/ha; for pest or weed control at 125 g/ha: 125 g ai/ha
Method in brief: as §1

[3] = test system: giant foxtail (Setaria faberii); test: Test A preemergence; conditions: Setaria faberi, pre-emergence, 240 h, read-out: Plant response rating, Foxtail, Giant; for pest or weed control at 500 g/ha: 500 g ai/ha; for pest or weed control at 125 g/ha: 125 g ai/ha
Method in brief: as §1

[4] = test system: ragweed (common ragweed, Ambrosia elatior); test: Test A preemergence; conditions: Ambrosia artemisiifolia, pre-emergence, 240 h, read-out: Plant response rating, Ragweed; for pest or weed control at 500 g/ha: 500 g ai/ha; for pest or weed control at 125 g/ha: 125 g ai/ha
Method in brief: as §1

[5] = test system: ryegrass, Italian (Italian ryegrass, Lolium multiflorum); test: Test A preemergence; conditions: Lolium multiflorum, pre-emergence, 240 h, read-out: Plant response rating, Ryegrass, Italian; for pest or weed control at 500 g/ha: 500 g ai/ha; for pest or weed control at 125 g/ha: 125 g ai/ha
Method in brief: as §1

[6] = test system: Galium (catchweed bedstraw, Galium aparine); test: Test A postemergence; conditions: Galium, post-emergence, 240 h; for pest or weed control at 125 g/ha: 125 g ai/ha
Method in brief: as §1

[7] = test system: Kochia (Kochia scoparia); test: Test A postemergence; conditions: Bassia scoparia, post-emergence, 240 h; for pest or weed control at 125 g/ha: 125 g ai/ha
Method in brief: as §1

[8] = test system: barnyardgrass (Echinochloa crus-galli); test: Test A postemergence; conditions: Echinochloa crus-galli, post-emergence, 240 h; for pest or weed control at 125 g/ha: 125 g ai/ha
Method in brief: as §1

[9] = test system: blackgrass (Alopecurus myosuroides); test: Test A postemergence; conditions: Alopecurus myosuroides, post-emergence, 240 h; for pest or weed control at 125 g/ha: 125 g ai/ha
Method in brief: as §1

[10] = test system: corn (Zea mays); test: Test A postemergence; conditions: Zea mays, post-emergence, 240 h
Method in brief: as §1

[11] = test system: giant foxtail (Setaria faberii); test: Test A postemergence; conditions: Setaria faberi, post-emergence, 240 h; for pest or weed control at 125 g/ha: 125 g ai/ha
Method in brief: as §1

[12] = test system: pigweed (Amaranthus retroflexus); test: Test A postemergence; conditions: Amaranthus retroflexus, post-emergence, 240 h; for pest or weed control at 125 g/ha: 125 g ai/ha
Method in brief: as §1

[13] = test system: ragweed (common ragweed, Ambrosia elatior); test: Test A postemergence; conditions: Ambrosia artemisiifolia, post-emergence, 240 h; for pest or weed control at 125 g/ha: 125 g ai/ha
Method in brief: as §1

[14] = test system: ryegrass, Italian (Italian ryegrass, Lolium multiflorum); test: Test A postemergence; conditions: Lolium multiflorum, post-emergence, 240 h; for pest or weed control at 125 g/ha: 125 g ai/ha
Method in brief: as §1

[15] = test system: wheat (Triticum aestivum); test: Test A postemergence; conditions: Triticum aestivum, post-emergence, 240 h; for plant injury at 125 g/ha: 125 g ai/ha
Method in brief: as §1

[16] = preemergence, 0 to 100 scale (0 no effect, 100 complete control)
[17] = Preemergence, 0 to 100 scale (0 no effect, 100 complete control)
[18] = preemergence, visual rating after approx. 10 d, 0 to 100 scale where 0 is no effect and 100 is complete control
[19] = preemergence, 0 to 100 scale, 0 = no effect, 100 = complete control

C=CN1C[C@H](c2ccc(C)c(F)c2)[C@@H](C(=O)Nc2cccc(F)c2F)C1=O (racemic) [Compound 1332]
pest or weed control at 500 g/ha [1, 16]: 0%
pest or weed control at 125 g/ha [1, 17]: 0%
pest or weed control at 500 g/ha [2, 16]: 90%
pest or weed control at 125 g/ha [2, 17]: 70%
pest or weed control at 500 g/ha [3, 16]: 90%
pest or weed control at 125 g/ha [3, 17]: 80%
pest or weed control at 500 g/ha [4, 16]: 0%
pest or weed control at 125 g/ha [4, 17]: 0%
pest or weed control at 500 g/ha [5, 16]: 0%
pest or weed control at 125 g/ha [5, 17]: 0%
pest or weed control at 125 g/ha ([6]; Postemergence, visual rating about 10 d after treatment, read-out: Galium plant response rating (0 to 100 scale)): 0%
pest or weed control at 500 g/ha ([6]; Postemergence, 500 g ai/ha, visual injury, 0 to 100 scale (0 no effect, 100 complete control), approx. 10 d, read-out: Plant response rating, Galium): 20%
pest or weed control at 125 g/ha ([7]; Postemergence, visual rating about 10 d after treatment, read-out: Kochia plant response rating (0 to 100 scale)): 0%
pest or weed control at 500 g/ha ([7]; Postemergence, 500 g ai/ha, visual injury, 0 to 100 scale (0 no effect, 100 complete control), approx. 10 d, read-out: Plant response rating, Kochia): 0%
pest or weed control at 125 g/ha ([8]; Postemergence, visual rating about 10 d after treatment, read-out: Barnyardgrass plant response rating (0 to 100 scale, 0 no effect, 100 complete control)): 50%
pest or weed control at 500 g/ha ([8]; Postemergence, 500 g ai/ha, visual injury, 0 to 100 scale (0 no effect, 100 complete control), approx. 10 d, read-out: Plant response rating, Barnyardgrass): 60%
pest or weed control at 125 g/ha ([9]; Postemergence, visual rating about 10 d after treatment, read-out: Blackgrass plant response rating (0 to 100 scale)): 0%
pest or weed control at 500 g/ha ([9]; Postemergence, 500 g ai/ha, visual injury, 0 to 100 scale (0 no effect, 100 complete control), approx. 10 d, read-out: Plant response rating, Blackgrass): 30%
plant injury at 125 g/ha ([10]; 125 g ai/ha, Postemergence, visual rating about 10 d after treatment, read-out: Corn plant response rating (0 to 100 scale)): 0%
Corn plant response rating (crop injury, 0 = no effect, 100 = complete kill) at 500 g/ha ([10]; Postemergence, 500 g ai/ha, visual injury, 0 to 100 scale (0 no effect, 100 complete control), approx. 10 d): 0%
pest or weed control at 125 g/ha ([11]; Postemergence, visual rating about 10 d after treatment, read-out: Foxtail, Giant plant response rating (0 to 100 scale)): 40%
pest or weed control at 500 g/ha ([11]; Postemergence, 500 g ai/ha, visual injury, 0 to 100 scale (0 no effect, 100 complete control), approx. 10 d, read-out: Plant response rating, Foxtail, Giant): 60%
pest or weed control at 125 g/ha ([12]; Postemergence, visual rating about 10 d after treatment, read-out: Pigweed plant response rating (0 to 100 scale)): 0%
pest or weed control at 500 g/ha ([12]; Postemergence, 500 g ai/ha, visual injury, 0 to 100 scale (0 no effect, 100 complete control), approx. 10 d, read-out: Plant response rating, Pigweed): 0%
pest or weed control at 125 g/ha ([13]; Postemergence, visual rating about 10 d after treatment, read-out: Ragweed plant response rating (0 to 100 scale)): 0%
pest or weed control at 500 g/ha ([13]; Postemergence, 500 g ai/ha, visual injury, 0 to 100 scale (0 no effect, 100 complete control), approx. 10 d, read-out: Plant response rating, Ragweed): 20%
pest or weed control at 125 g/ha ([14]; Postemergence, visual rating about 10 d after treatment, read-out: Ryegrass, Italian plant response rating (0 to 100 scale)): 0%
pest or weed control at 500 g/ha ([14]; Postemergence, 500 g ai/ha, visual injury, 0 to 100 scale (0 no effect, 100 complete control), approx. 10 d, read-out: Plant response rating, Ryegrass, Italian): 0%
plant injury at 125 g/ha ([15]; Postemergence, visual rating about 10 d after treatment, read-out: Wheat plant response rating (0 to 100 scale)): 0%
plant injury at 500 g/ha ([15]; Postemergence, 500 g ai/ha, visual injury, 0 to 100 scale (0 no effect, 100 complete control), approx. 10 d, read-out: Plant response rating, Wheat): 20%

Cc1cc([C@H]2CNC(=O)[C@@H]2C(=O)Nc2ccccc2F)ccc1F [Compound 717]
pest or weed control at 125 g/ha [1, 18]: 0%
pest or weed control at 500 g/ha [1, 19]: 60%
pest or weed control at 125 g/ha [2, 18]: 90%
pest or weed control at 500 g/ha [2, 19]: 90%
pest or weed control at 125 g/ha [3, 18]: 80%
pest or weed control at 500 g/ha [3, 19]: 90%
pest or weed control at 125 g/ha [4, 18]: 0%
pest or weed control at 500 g/ha [4, 19]: 40%
pest or weed control at 125 g/ha [5, 18]: 0%
pest or weed control at 500 g/ha [5, 19]: 30%
pest or weed control at 125 g/ha ([6]; postemergence, visual injury after approximately 10 d, 0 to 100 scale (0 no effect, 100 complete control), read-out: Plant response rating, Galium): 40%
pest or weed control at 125 g/ha ([7]; postemergence, visual injury after approximately 10 d, 0 to 100 scale (0 no effect, 100 complete control), read-out: Plant response rating, Kochia): 20%
pest or weed control at 125 g/ha ([8]; postemergence, visual injury after approximately 10 d, 0 to 100 scale (0 no effect, 100 complete control), read-out: Plant response rating, Barnyardgrass): 90%
pest or weed control at 125 g/ha ([9]; postemergence, visual injury after approximately 10 d, 0 to 100 scale (0 no effect, 100 complete control), read-out: Plant response rating, Blackgrass): 0%
Corn plant response rating (crop injury, 0 = no effect, 100 = complete kill) at 125 g/ha ([10]; 125 g ai/ha, postemergence, visual injury after approximately 10 d, 0 to 100 scale (0 no effect, 100 complete control)): 0%
pest or weed control at 125 g/ha ([11]; postemergence, visual injury after approximately 10 d, 0 to 100 scale (0 no effect, 100 complete control), read-out: Plant response rating, Foxtail, Giant): 30%
pest or weed control at 125 g/ha ([12]; postemergence, visual injury after approximately 10 d, 0 to 100 scale (0 no effect, 100 complete control), read-out: Plant response rating, Pigweed): 0%
pest or weed control at 125 g/ha ([13]; postemergence, visual injury after approximately 10 d, 0 to 100 scale (0 no effect, 100 complete control), read-out: Plant response rating, Ragweed): 0%
pest or weed control at 125 g/ha ([14]; postemergence, visual injury after approximately 10 d, 0 to 100 scale (0 no effect, 100 complete control), read-out: Plant response rating, Ryegrass, Italian): 0%
plant injury at 125 g/ha ([15]; postemergence, visual injury after approximately 10 d, 0 to 100 scale (0 no effect, 100 complete control), read-out: Plant response rating, Wheat): 0%
